The structures appear in SMILES notation.

In the experiment the target is T1, recombinant IL4I1 (Homo sapiens, UniProt Q96RQ9).
T1 construct: purchased R&D Systems 5684-AO-020
T1 sequence (Q96RQ9 22-567): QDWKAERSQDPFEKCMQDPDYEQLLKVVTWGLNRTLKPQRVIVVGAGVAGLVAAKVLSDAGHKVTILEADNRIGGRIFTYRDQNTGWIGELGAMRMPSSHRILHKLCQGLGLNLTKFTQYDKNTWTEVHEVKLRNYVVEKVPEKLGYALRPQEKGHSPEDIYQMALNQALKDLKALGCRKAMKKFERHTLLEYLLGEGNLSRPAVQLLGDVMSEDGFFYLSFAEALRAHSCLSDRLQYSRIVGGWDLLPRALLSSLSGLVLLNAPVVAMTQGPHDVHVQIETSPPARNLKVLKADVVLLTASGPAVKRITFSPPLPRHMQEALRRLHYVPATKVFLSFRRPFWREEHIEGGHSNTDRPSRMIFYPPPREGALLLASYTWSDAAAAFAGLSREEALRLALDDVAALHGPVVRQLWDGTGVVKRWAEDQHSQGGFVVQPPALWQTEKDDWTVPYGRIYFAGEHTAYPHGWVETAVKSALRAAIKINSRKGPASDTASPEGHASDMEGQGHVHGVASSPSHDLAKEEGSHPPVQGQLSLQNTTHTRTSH
Description: IL4I1 Enzymatic Assay (Amplex Red/HRP coupled H2O2 detection). The experiment is classed as biochemical. To be noted: 240 min; four-hour pre-incubation with compound; 1 nM IL4I1, 1 mM each Phe/Tyr/Trp; ten-point titration; fluorescence readout; read-out: Potency EC50 (nM) (240 min). Summed up: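 Recombinant IL4I1 at 1 nM final, pre-incubated 4 h with compound (0.1% DMSO) at ambient temperature in 50 mM Hepes pH 7.0, 0.005% Tween20; 1 mM each Phe/Tyr/Trp, 120 min, H2O2 read via Amplex Red/HRP fluorescence (544/590 nm). EC50 from ten-point four-parameter fit.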
As to `CNC(=O)Cc1ccc(Cn2c(=O)[nH]c3ccccc32)cc1` [Example 107, N-methyl-2-(4-((2-oxo-2,3-dihydro-1H-benzo[d]imidazol-1-yl)methyl)phenyl)acetamide], the concentration for a half-maximal effect (EC50) (as a rule, the midpoint of the concentration-response curve) was 5 nM. Turning to `O=C(Cc1ccc(Cn2c(=O)[nH]c3ccccc32)cc1)N1CCC(F)C1` (centres unmarked) [Example 108, 1-(4-(2-(3-fluoropyrrolidin-1-yl)-2-oxoethyl)benzyl)-1,3-dihydro-2H-benzo[d]imidazol-2-one], the EC50 is 8 nM. To `CCc1ccc2c(c1)[nH]c(=O)n2Cc1ccccc1` [Example 109, 1-benzyl-5-ethyl-1,3-dihydro-2H-benzo[d]imidazol-2-one] belongs 4940 nM; to `O=c1[nH]c2cccc(F)c2n1Cc1ccccc1` [Example 110, 1-benzyl-7-fluoro-1,3-dihydro-2H-benzimidazol-2-one], 9160 nM. As to `O=c1[nH]c2sccc2n1Cc1ccccc1` [Example 112, 1-benzyl-1,3-dihydro-2H-thieno[2,3-d]imidazol-2-one], the EC50 worked out at 1320 nM. On to `O=c1[nH]c2ccsc2n1Cc1ccccc1` [Example 113, 3-benzyl-1,3-dihydro-2H-thieno[2,3-d]imidazol-2-one], for which the EC50 worked out at 2850 nM. To `O=c1[nH]c2ccccc2n1CCCCc1cccc2cccnc12` [Example 114, 1-(4-(quinolin-8-yl)butyl)-1,3-dihydro-2H-benzo[d]imidazol-2-one] belongs 107 nM; to `O=c1[nH]c2ccccc2n1CC1CCN(c2ccccn2)CC1` [Example 115, 1-((1-(pyridin-2-yl)piperidin-4-yl)methyl)-1,3-dihydro-2H-benzo[d]imidazol-2-one], 1300 nM.

The values above are taken from patent US12454525B2, “IL4I1 inhibitors and methods of use” (Merck Sharp & Dohme LLC, priority 2020, dated 2025).
